# What was measured:
# Type in all cases: cell-based
# PC3 = experiment: Cancer cell panel, cell viability (resazurin): Prostate, PC3; conditions: 72 hours, labelled drug combined with Example 3
# Description: (§1) Cells were plated in 96-well plates and treated for 72 hours with a serially diluted CK2 inhibitor or anti-cancer drug or their combination. The suspension cell lines were treated right after plating, while the adherent cells were allowed to attach overnight prior to the start of the treatment.
# (§2) Cell viability was determined by adding resazurin to cell cultures and measuring fluorescence with a plate reader. Relative cell viability was calculated by dividing the cell viability signal from a test sample by that of a non-treated control. […] Bliss Independence and Highest Single Agent models were used to determine if there is synergy, additivity or antagonism between the CK2 inhibitor and an anti-cancer drug.
# SKOV-3 = experiment: Cancer cell panel, cell viability (resazurin): Ovarian, SKOV-3; conditions: SKOV-3 (Ovarian), 72 hours; labelled drug combined with Example 3
# Description: as §1, §2
# OVCAR-3 = experiment: Cancer cell panel, cell viability (resazurin): Ovarian, OVCAR-3; conditions: OVCAR-3 (Ovarian), 72 hours; labelled drug combined with Example 3
# A2780 = experiment: Cancer cell panel, cell viability (resazurin): Ovarian, A2780; conditions: 72 hours, labelled drug combined with Example 3
# Caov-3 = experiment: Cancer cell panel, cell viability (resazurin): Ovarian, Caov-3; conditions: Caov-3 (Ovarian), 72 hours; labelled drug combined with Example 3
# Panc-1 = experiment: Cancer cell panel, cell viability (resazurin): Pancreatic, Panc-1; conditions: Panc-1 (Pancreatic), 72 hours; labelled drug combined with Example 3
# BxPC3 = experiment: Cancer cell panel, cell viability (resazurin): Pancreatic, BxPC3; conditions: 72 hours, labelled drug combined with Example 3
# HT29 = experiment: Cancer cell panel, cell viability (resazurin): Colon, HT29; conditions: 72 hours, labelled drug combined with Example 3
# Colo205 = experiment: Cancer cell panel, cell viability (resazurin): Colon, Colo205; conditions: 72 hours, labelled drug combined with Example 3
# Description: as §1, §2
# LoVo = experiment: Cancer cell panel, cell viability (resazurin): Colon, LoVo; conditions: 72 hours, labelled drug combined with Example 3
# Description: as §1, §2
# DLD-1 = experiment: Cancer cell panel, cell viability (resazurin): Colon, DLD-1; conditions: DLD-1 (Colon), 72 hours; labelled drug combined with Example 3
# H1299 = experiment: Cancer cell panel, cell viability (resazurin): NSCLC, H1299; conditions: 72 hours, labelled drug combined with Example 3
# H460 = experiment: Cancer cell panel, cell viability (resazurin): NSCLC, H460; conditions: 72 hours, labelled drug combined with Example 3
# H1975 = experiment: Cancer cell panel, cell viability (resazurin): NSCLC, H1975; conditions: 72 hours, labelled drug combined with Example 3
# H23 = experiment: Cancer cell panel, cell viability (resazurin): NSCLC, H23; conditions: 72 hours, labelled drug combined with Example 3
# H2122 = experiment: Cancer cell panel, cell viability (resazurin): NSCLC, H2122; conditions: 72 hours, labelled drug combined with Example 3
# SkBr-3 = experiment: Cancer cell panel, cell viability (resazurin): Breast, SkBr-3; conditions: SkBr-3 (Breast), 72 hours; labelled drug combined with Example 3
# Description: as §1, §2
# MDA-MB-453 = experiment: Cancer cell panel, cell viability (resazurin): Breast, MDA-MB-453; conditions: MDA-MB-453 (Breast), 72 hours; labelled drug combined with Example 3
# MDA-MB-231 = experiment: Cancer cell panel, cell viability (resazurin): Breast, MDA-MB-231; conditions: MDA-MB-231 (Breast), 72 hours; labelled drug combined with Example 3
# Description: as §1, §2
# BT-20 = experiment: Cancer cell panel, cell viability (resazurin): Breast, BT-20; conditions: BT-20 (Breast), 72 hours; labelled drug combined with Example 3
# BT-474 = experiment: Cancer cell panel, cell viability (resazurin): Breast, BT-474; conditions: BT-474 (Breast), 72 hours; labelled drug combined with Example 3
# ZR-75-1 = experiment: Cancer cell panel, cell viability (resazurin): Breast, ZR-75-1; conditions: ZR-75-1 (Breast), 72 hours; labelled drug combined with Example 3
# T47D = experiment: Cancer cell panel, cell viability (resazurin): Breast, T47D; conditions: 72 hours, labelled drug combined with Example 3
# 786-O = experiment: Cancer cell panel, cell viability (resazurin): Renal, 786-O; conditions: 786-O (Renal), 72 hours; labelled drug combined with Example 3
# ACHN = experiment: Cancer cell panel, cell viability (resazurin): Renal, ACHN; conditions: 72 hours, labelled drug combined with Example 3
# Description: as §1, §2
# Caki-1 = experiment: Cancer cell panel, cell viability (resazurin): Renal, Caki-1; conditions: Caki-1 (Renal), 72 hours; labelled drug combined with Example 3
# A375 = experiment: Cancer cell panel, cell viability (resazurin): Melanoma, A375; conditions: 72 hours, labelled drug combined with Example 3
# Description: as §1, §2
# SK-MEL-3 = experiment: Cancer cell panel, cell viability (resazurin): Melanoma, SK-MEL-3; conditions: SK-MEL-3 (Melanoma), 72 hours; labelled drug combined with Example 3
# SK-MEL-24 = experiment: Cancer cell panel, cell viability (resazurin): Melanoma, SK-MEL-24; conditions: SK-MEL-24 (Melanoma), 72 hours; labelled drug combined with Example 3
# Description: as §1, §2
# WM-115 = experiment: Cancer cell panel, cell viability (resazurin): Melanoma, WM-115; conditions: WM-115 (Melanoma), 72 hours; labelled drug combined with Example 3
# U266 = experiment: Cancer cell panel, cell viability (resazurin): multiple myeloma, U266; conditions: 72 hours, labelled drug combined with Example 3
# RPMI8226 = experiment: Cancer cell panel, cell viability (resazurin): multiple myeloma, RPMI8226; conditions: 72 hours, labelled drug combined with Example 3
# Description: as §1, §2
# U87MG = experiment: Cancer cell panel, cell viability (resazurin): Glioblastoma, U87MG; conditions: 72 hours, labelled drug combined with Example 3
# Description: as §1, §2
# Daudi = experiment: Cancer cell panel, cell viability (resazurin): Burkitt's Lymphoma, Daudi; conditions: 72 hours, labelled drug combined with Example 3
# NAMALWA = experiment: Cancer cell panel, cell viability (resazurin): Burkitt's Lymphoma, NAMALWA; conditions: 72 hours, labelled drug combined with Example 3
# Description: as §1, §2
# K562 = experiment: Cancer cell panel, cell viability (resazurin): Leukemia, K562; conditions: 72 hours, labelled drug combined with Example 3
# Description: as §1, §2
# HL60 = experiment: Cancer cell panel, cell viability (resazurin): Leukemia, HL60; conditions: 72 hours, labelled drug combined with Example 3
# Description: as §1, §2
# EOL-1 = experiment: Cancer cell panel, cell viability (resazurin): Leukemia, EOL-1; conditions: EOL-1 (Leukemia), 72 hours; labelled drug combined with Example 3
# Description: as §1, §2
# MOLT4 = experiment: Cancer cell panel, cell viability (resazurin): Leukemia, MOLT4; conditions: 72 hours, labelled drug combined with Example 3
structure (smiles),measurement,setting,value
"C#Cc1cccc(Nc2ncnc3cc(OCCOC)c(OCCOC)cc23)c1 [Erlotinib, erlotinib]","synergy, additivity or antagonism of the combination of Example 3 with the anti-cancer drug",PC3,− (Slightly antagonistic relative to each agent alone (CI = 1.1-1.2 by Highest Single Agent Model))
same,"synergy, additivity or antagonism of the combination of Example 3 with the anti-cancer drug",SKOV-3,+ + + (Synergy relative to each agent alone (CI = 0.4-0.74 by Bliss Independence Model))
same,"synergy, additivity or antagonism of the combination of Example 3 with the anti-cancer drug",OVCAR-3,+ (Additive relative to each agent alone (CI = 0.9-1 by Bliss Independence Model and <0.9 by Highest Single Agent Model))
same,"synergy, additivity or antagonism of the combination of Example 3 with the anti-cancer drug",A2780,+ + (Slight synergy relative to each agent alone (CI = 0.75-0.9 by Bliss Independence Model))
same,"synergy, additivity or antagonism of the combination of Example 3 with the anti-cancer drug",Caov-3,+ + (Slight synergy relative to each agent alone (CI = 0.75-0.9 by Bliss Independence Model))
same,"synergy, additivity or antagonism of the combination of Example 3 with the anti-cancer drug",Panc-1,+ (Additive relative to each agent alone (CI = 0.9-1 by Bliss Independence Model and <0.9 by Highest Single Agent Model))
same,"synergy, additivity or antagonism of the combination of Example 3 with the anti-cancer drug",BxPC3,+ + + + (Strong synergy relative to each agent alone (CI < 0.4 by Bliss Independence Model))
same,"synergy, additivity or antagonism of the combination of Example 3 with the anti-cancer drug",HT29,+ + (Slight synergy relative to each agent alone (CI = 0.75-0.9 by Bliss Independence Model))
same,"synergy, additivity or antagonism of the combination of Example 3 with the anti-cancer drug",Colo205,+ + + (Synergy relative to each agent alone (CI = 0.4-0.74 by Bliss Independence Model))
same,"synergy, additivity or antagonism of the combination of Example 3 with the anti-cancer drug",LoVo,+ (Additive relative to each agent alone (CI = 0.9-1 by Bliss Independence Model and <0.9 by Highest Single Agent Model))
same,"synergy, additivity or antagonism of the combination of Example 3 with the anti-cancer drug",DLD-1,+ + + (Synergy relative to each agent alone (CI = 0.4-0.74 by Bliss Independence Model))
same,"synergy, additivity or antagonism of the combination of Example 3 with the anti-cancer drug",H1299,+ (Additive relative to each agent alone (CI = 0.9-1 by Bliss Independence Model and <0.9 by Highest Single Agent Model))
same,"synergy, additivity or antagonism of the combination of Example 3 with the anti-cancer drug",H460,+ + + + (Strong synergy relative to each agent alone (CI < 0.4 by Bliss Independence Model))
same,"synergy, additivity or antagonism of the combination of Example 3 with the anti-cancer drug",H1975,+ + (Slight synergy relative to each agent alone (CI = 0.75-0.9 by Bliss Independence Model))
same,"synergy, additivity or antagonism of the combination of Example 3 with the anti-cancer drug",H23,+ + + (Synergy relative to each agent alone (CI = 0.4-0.74 by Bliss Independence Model))
same,"synergy, additivity or antagonism of the combination of Example 3 with the anti-cancer drug",H2122,+ + + + (Strong synergy relative to each agent alone (CI < 0.4 by Bliss Independence Model))
same,"synergy, additivity or antagonism of the combination of Example 3 with the anti-cancer drug",SkBr-3,+ + (Slight synergy relative to each agent alone (CI = 0.75-0.9 by Bliss Independence Model))
same,"synergy, additivity or antagonism of the combination of Example 3 with the anti-cancer drug",MDA-MB-453,+ + (Slight synergy relative to each agent alone (CI = 0.75-0.9 by Bliss Independence Model))
same,"synergy, additivity or antagonism of the combination of Example 3 with the anti-cancer drug",MDA-MB-231,+ + (Slight synergy relative to each agent alone (CI = 0.75-0.9 by Bliss Independence Model))
same,"synergy, additivity or antagonism of the combination of Example 3 with the anti-cancer drug",BT-20,+ + + (Synergy relative to each agent alone (CI = 0.4-0.74 by Bliss Independence Model))
same,"synergy, additivity or antagonism of the combination of Example 3 with the anti-cancer drug",BT-474,+ + (Slight synergy relative to each agent alone (CI = 0.75-0.9 by Bliss Independence Model))
same,"synergy, additivity or antagonism of the combination of Example 3 with the anti-cancer drug",ZR-75-1,+ (Additive relative to each agent alone (CI = 0.9-1 by Bliss Independence Model and <0.9 by Highest Single Agent Model))
same,"synergy, additivity or antagonism of the combination of Example 3 with the anti-cancer drug",T47D,+ (Additive relative to each agent alone (CI = 0.9-1 by Bliss Independence Model and <0.9 by Highest Single Agent Model))
same,"synergy, additivity or antagonism of the combination of Example 3 with the anti-cancer drug",786-O,+ + (Slight synergy relative to each agent alone (CI = 0.75-0.9 by Bliss Independence Model))
same,"synergy, additivity or antagonism of the combination of Example 3 with the anti-cancer drug",ACHN,+ (Additive relative to each agent alone (CI = 0.9-1 by Bliss Independence Model and <0.9 by Highest Single Agent Model))
same,"synergy, additivity or antagonism of the combination of Example 3 with the anti-cancer drug",Caki-1,+ (Additive relative to each agent alone (CI = 0.9-1 by Bliss Independence Model and <0.9 by Highest Single Agent Model))
same,"synergy, additivity or antagonism of the combination of Example 3 with the anti-cancer drug",A375,+ + (Slight synergy relative to each agent alone (CI = 0.75-0.9 by Bliss Independence Model))
same,"synergy, additivity or antagonism of the combination of Example 3 with the anti-cancer drug",SK-MEL-3,+ (Additive relative to each agent alone (CI = 0.9-1 by Bliss Independence Model and <0.9 by Highest Single Agent Model))
same,"synergy, additivity or antagonism of the combination of Example 3 with the anti-cancer drug",SK-MEL-24,+ (Additive relative to each agent alone (CI = 0.9-1 by Bliss Independence Model and <0.9 by Highest Single Agent Model))
same,"synergy, additivity or antagonism of the combination of Example 3 with the anti-cancer drug",WM-115,+ (Additive relative to each agent alone (CI = 0.9-1 by Bliss Independence Model and <0.9 by Highest Single Agent Model))
same,"synergy, additivity or antagonism of the combination of Example 3 with the anti-cancer drug",U266,+ (Additive relative to each agent alone (CI = 0.9-1 by Bliss Independence Model and <0.9 by Highest Single Agent Model))
same,"synergy, additivity or antagonism of the combination of Example 3 with the anti-cancer drug",RPMI8226,+ + + (Synergy relative to each agent alone (CI = 0.4-0.74 by Bliss Independence Model))
same,"synergy, additivity or antagonism of the combination of Example 3 with the anti-cancer drug",U87MG,+ (Additive relative to each agent alone (CI = 0.9-1 by Bliss Independence Model and <0.9 by Highest Single Agent Model))
same,"synergy, additivity or antagonism of the combination of Example 3 with the anti-cancer drug",Daudi,+ + (Slight synergy relative to each agent alone (CI = 0.75-0.9 by Bliss Independence Model))
same,"synergy, additivity or antagonism of the combination of Example 3 with the anti-cancer drug",NAMALWA,+ (Additive relative to each agent alone (CI = 0.9-1 by Bliss Independence Model and <0.9 by Highest Single Agent Model))
same,"synergy, additivity or antagonism of the combination of Example 3 with the anti-cancer drug",K562,+ + + (Synergy relative to each agent alone (CI = 0.4-0.74 by Bliss Independence Model))
same,"synergy, additivity or antagonism of the combination of Example 3 with the anti-cancer drug",HL60,+ + (Slight synergy relative to each agent alone (CI = 0.75-0.9 by Bliss Independence Model))
same,"synergy, additivity or antagonism of the combination of Example 3 with the anti-cancer drug",EOL-1,+ (Additive relative to each agent alone (CI = 0.9-1 by Bliss Independence Model and <0.9 by Highest Single Agent Model))
same,"synergy, additivity or antagonism of the combination of Example 3 with the anti-cancer drug",MOLT4,+ + (Slight synergy relative to each agent alone (CI = 0.75-0.9 by Bliss Independence Model))

# Reference: patent publication US10227344B2, “CK2 inhibitors, compositions and methods thereof” (Polaris Pharmaceuticals, Inc., priority 2016, dated 2019)
